In publication PMC9395488, “First-in-human study of IM156, a novel potent biguanide oxidative phosphorylation (OXPHOS) inhibitor, in patients with advanced solid tumors” (Investigational New Drugs, 2022):

Tested on: patients with advanced solid tumors
Assay: First-in-human phase 1 dose-escalation study: safety, DLTs, adverse events
Type: in vivo
Settings: for TRAE Blood Lactic Acid increased, > G3 (patients) / TRAE Blood Lactic Acid increased, All grades (patients) / TRAE Constipation, > G3 (patients) / TRAE Constipation, All grades (patients) / TRAE Decreased appetite, > G3 (patients) / TRAE Decreased appetite, All grades (patients) / TRAE Diarrhoea, > G3 (patients) / TRAE Diarrhoea, All grades (patients) / TRAE Fatigue, > G3 (patients) / TRAE Fatigue, All grades (patients) / TRAE Insomnia, > G3 (patients) / TRAE Insomnia, All grades (patients) / TRAE Nausea, > G3 (patients) / TRAE Nausea, All grades (patients) / TRAE Vomiting, > G3 (patients) / TRAE Vomiting, All grades (patients) / TRAE Abdominal Pain, > G3 (patients) / TRAE Abdominal Pain, All grades (patients): N = 3
From the text: This multicenter first-in-human dose-escalation phase 1 study (clinicaltrials.gov identifier: NCT03272256) was designed to determine the MTD or RP2D and to evaluate the safety and tolerability of IM156. Secondary endpoints included PK characteristics, efficacy assessment (objective response rate [ORR], disease control rate [DCR], duration of response [DoR] and progression-free survival [PFS]). Furthermore, exploratory objectives included identification and profiling of IM156 metabolites, evaluations of exploratory PD markers of IM156, and evaluations of any potential relationship between putative biomarkers and safety/efficacy parameters of IM156. The study was conducted in accordance with Good Clinical Practice, the International Council for Harmonisation, and guidelines governing clinical study conduct and the ethical principles originating from the Declaration of Helsinki. The study was approved by each Institutional Review Board and patients provided written informed consent. Patients were enrolled at three sites in South Korea.
The initial dose and schedule of IM156 was chosen based on animal toxicology studies. […] IM156 was administered in the fasted state, with no food for at least 2 h before and 1 h after dosing.
Three DLT-evaluable patients were enrolled at each dose level. If there were no DLTs or other prohibitive adverse events (AEs), the Safety Committee was allowed to recommend escalation to the next highest dose level. If 1 DLT occurred in the first 3 DLT-evaluable patients, enrollment in that cohort was expanded to an additional 3 DLT-evaluable patients; if ≥ 2 DLTs were reported in a cohort, that dose was considered above the MTD.
Safety was assessed through vital signs, weight, laboratory assessments, physical examinations, electrocardiogram, and reporting of AEs as graded by the National Cancer Institute’s Common Terminology Criteria for Adverse Events v4.03 (NCI-CTCAE).
DLTs were defined as the following AEs if they were attributed as related to IM156: asymptomatic grade 4 neutropenia lasting for ≥ 5 days; febrile neutropenia, regardless of grade; grade 4 thrombocytopenia or grade 3 thrombocytopenia with bleeding; any grade ≥ 3 non-hematologic AE (except grade 3 hypertension and grade 3 nausea, vomiting or diarrhea for which proper measures for prevention and treatment were not implemented, and alopecia); blood lactate levels > 5 mmol; grade ≥ 2 AE prohibiting dosing of IM156 for ≥ 21 continuous days except for alterations in serum calcium or phosphorus levels. The safety analysis includes all patients who received at least one dose of study drug.
The safety population was defined as all patients who received at least one dose of IM156. The PK population was not defined in the protocol but included all patients with sufficient PK data to perform adequate PK modeling. The efficacy population included all patients who underwent at least one tumor imaging assessment while receiving IM156. Safety was assessed using descriptive statistics (e.g., DLTs, AEs, laboratory tests, physical examination, 12-lead ECG). The incidence and number of events were reported for the DLTs observed in Cycle 1 per dose group. […] Adverse events and TRAEs were standardized with the System Organ Class and the Preferred Term using the Medical Dictionary for Regulatory Activities v23.0. In addition, TEAEs, serious adverse events (SAEs), TEAE severity, and TEAEs leading to withdrawal were presented by dose group. Efficacy data were to be presented by Waterfall and Swim Lane plots. Time to event endpoints (e.g., DoR, PFS) were determined using Kaplan–Meier estimations with the median value for each endpoint summarized.

[1] = DL3 400 mg orally every other day (n=3)
[2] = DL4 800 mg orally every other day (n=3)
[3] = DL5 1200 mg orally every other day (n=3)

## NC(=Nc1ccc(OC(F)(F)F)cc1)N=C(N)N1CCCC1 [IM156]
DL3 400 mg QOD oral
  TRAE Blood Lactic Acid increased, > G3 (patients): 0
  TRAE Blood Lactic Acid increased, All grades (patients): 0
  TRAE Constipation, > G3 (patients): 0
  TRAE Constipation, All grades (patients): 0
  TRAE Decreased appetite, > G3 (patients): 0
  TRAE Decreased appetite, All grades (patients): 0
  TRAE Diarrhoea, > G3 (patients): 0
  TRAE Diarrhoea, All grades (patients): 0
  TRAE Fatigue, > G3 (patients): 0
  TRAE Fatigue, All grades (patients): 0
  TRAE Insomnia, > G3 (patients): 0
  TRAE Insomnia, All grades (patients): 1
  TRAE Nausea, > G3 (patients): 0
  TRAE Nausea, All grades (patients): 3
  TRAE Vomiting, > G3 (patients): 0
  TRAE Vomiting, All grades (patients): 1
[1]
  TEAE Adrenal insufficiency grade 1: 0
  TEAE Adrenal insufficiency grade 2: 0
  TEAE Adrenal insufficiency grade 3: 0
  TEAE Adrenal insufficiency grade 4: 0
  TEAE Anaemia grade 1: 0
  TEAE Anaemia grade 2: 0
  TEAE Anaemia grade 3: 0
  TEAE Anaemia grade 4: 0
  TEAE Appendicitis perforated grade 1: 0
  TEAE Appendicitis perforated grade 2: 0
  TEAE Appendicitis perforated grade 3: 0
  TEAE Appendicitis perforated grade 4: 0
  TEAE Back pain grade 1: 0
  TEAE Back pain grade 2: 0
  TEAE Back pain grade 3: 0
  TEAE Back pain grade 4: 0
  TEAE Cystitis grade 1: 0
  TEAE Cystitis grade 2: 0
  TEAE Cystitis grade 3: 0
  TEAE Cystitis grade 4: 0
  TEAE Dry skin grade 1: 0
  TEAE Dry skin grade 2: 0
  TEAE Dry skin grade 3: 0
  TEAE Dry skin grade 4: 0
  TEAE Flank pain grade 1: 0
  TEAE Flank pain grade 2: 0
  TEAE Flank pain grade 3: 0
  TEAE Flank pain grade 4: 0
  TEAE Hypertension grade 1: 0
  TEAE Hypertension grade 2: 1
  TEAE Hypertension grade 3: 0
  TEAE Hypertension grade 4: 0
  TEAE Hypotension grade 1: 0
  TEAE Hypotension grade 2: 0
  TEAE Hypotension grade 3: 0
  TEAE Hypotension grade 4: 0
  TEAE Insomnia grade 1: 1
  TEAE Insomnia grade 2: 0
  TEAE Insomnia grade 3: 0
  TEAE Insomnia grade 4: 0
  TEAE Pain in extremity grade 1: 1
  TEAE Pain in extremity grade 2: 0
  TEAE Pain in extremity grade 3: 0
  TEAE Pain in extremity grade 4: 0
  TEAE Pruritus grade 1: 0
  TEAE Pruritus grade 2: 0
  TEAE Pruritus grade 3: 0
  TEAE Pruritus grade 4: 0
  TEAE Psychiatric disorders grade 1: 1
  TEAE Psychiatric disorders grade 2: 0
  TEAE Psychiatric disorders grade 3: 0
  TEAE Psychiatric disorders grade 4: 0
  TEAE Purpura grade 1: 0
  TEAE Purpura grade 2: 0
  TEAE Purpura grade 3: 0
  TEAE Purpura grade 4: 0
  TEAE Urinary retention grade 1: 0
  TEAE Urinary retention grade 2: 0
  TEAE Urinary retention grade 3: 0
  TEAE Urinary retention grade 4: 0
  TEAE Urinary tract disorder grade 1: 0
  TEAE Urinary tract disorder grade 2: 0
  TEAE Urinary tract disorder grade 3: 0
  TEAE Urinary tract disorder grade 4: 0
DL4 800 mg QOD (n=3)
  TEAE Abdominal pain upper, grade 2: 1
  TEAE Abdominal pain, grade 1: 1
  TEAE Abdominal pain, grade 3: 1
  TEAE Asthenia, grade 1: 1
  TEAE Chest pain, grade 1: 1
  TEAE Constipation, grade 1: 1
  TEAE Constipation, grade 2: 1
  TEAE Cough, grade 1: 1
  TEAE Diarrhoea, grade 1: 3
  TEAE Fatigue, grade 1: 1
  TEAE Nausea, grade 1: 2
  TEAE Nausea, grade 2: 1
DL4 800 mg QOD oral
  TRAE Abdominal Pain, > G3 (patients): 0
  TRAE Abdominal Pain, All grades (patients): 1
  TRAE Blood Lactic Acid increased, > G3 (patients): 0
  TRAE Blood Lactic Acid increased, All grades (patients): 0
  TRAE Constipation, > G3 (patients): 0
  TRAE Constipation, All grades (patients): 0
  TRAE Decreased appetite, > G3 (patients): 0
  TRAE Decreased appetite, All grades (patients): 0
  TRAE Diarrhoea, > G3 (patients): 0
  TRAE Diarrhoea, All grades (patients): 3
  TRAE Fatigue, > G3 (patients): 0
  TRAE Fatigue, All grades (patients): 1
  TRAE Insomnia, > G3 (patients): 0
  TRAE Insomnia, All grades (patients): 0
  TRAE Nausea, > G3 (patients): 0
  TRAE Nausea, All grades (patients): 3
  TRAE Vomiting, > G3 (patients): 0
  TRAE Vomiting, All grades (patients): 0
[2]
  TEAE Adrenal insufficiency grade 1: 0
  TEAE Adrenal insufficiency grade 2: 0
  TEAE Adrenal insufficiency grade 3: 0
  TEAE Adrenal insufficiency grade 4: 0
  TEAE Anaemia grade 1: 0
  TEAE Anaemia grade 2: 0
  TEAE Anaemia grade 3: 0
  TEAE Anaemia grade 4: 0
  TEAE Appendicitis perforated grade 1: 0
  TEAE Appendicitis perforated grade 2: 0
  TEAE Appendicitis perforated grade 3: 0
  TEAE Appendicitis perforated grade 4: 0
  TEAE Back pain grade 1: 0
  TEAE Back pain grade 2: 2
  TEAE Back pain grade 3: 0
  TEAE Back pain grade 4: 0
  TEAE Cystitis grade 1: 0
  TEAE Cystitis grade 2: 1
  TEAE Cystitis grade 3: 0
  TEAE Cystitis grade 4: 0
  TEAE Dry skin grade 1: 0
  TEAE Dry skin grade 2: 0
  TEAE Dry skin grade 3: 0
  TEAE Dry skin grade 4: 0
  TEAE Flank pain grade 1: 0
  TEAE Flank pain grade 2: 0
  TEAE Flank pain grade 3: 0
  TEAE Flank pain grade 4: 0
  TEAE Hypertension grade 1: 0
  TEAE Hypertension grade 2: 0
  TEAE Hypertension grade 3: 0
  TEAE Hypertension grade 4: 0
  TEAE Hypotension grade 1: 0
  TEAE Hypotension grade 2: 0
  TEAE Hypotension grade 3: 0
  TEAE Hypotension grade 4: 0
  TEAE Insomnia grade 1: 0
  TEAE Insomnia grade 2: 0
  TEAE Insomnia grade 3: 0
  TEAE Insomnia grade 4: 0
  TEAE Pain in extremity grade 1: 0
  TEAE Pain in extremity grade 2: 1
  TEAE Pain in extremity grade 3: 0
  TEAE Pain in extremity grade 4: 0
  TEAE Pruritus grade 1: 0
  TEAE Pruritus grade 2: 0
  TEAE Pruritus grade 3: 0
  TEAE Pruritus grade 4: 0
  TEAE Psychiatric disorders grade 1: 0
  TEAE Psychiatric disorders grade 2: 0
  TEAE Psychiatric disorders grade 3: 0
  TEAE Psychiatric disorders grade 4: 0
  TEAE Purpura grade 1: 0
  TEAE Purpura grade 2: 0
  TEAE Purpura grade 3: 0
  TEAE Purpura grade 4: 0
  TEAE Urinary retention grade 1: 0
  TEAE Urinary retention grade 2: 1
  TEAE Urinary retention grade 3: 0
  TEAE Urinary retention grade 4: 0
  TEAE Urinary tract disorder grade 1: 0
  TEAE Urinary tract disorder grade 2: 0
  TEAE Urinary tract disorder grade 3: 0
  TEAE Urinary tract disorder grade 4: 0
DL5 1200 mg QOD (n=3)
  TEAE Abdominal pain, grade 1: 1
  TEAE Alanine aminotransferase increased, grade 3: 1
  TEAE Aspartate aminotransferase increased, grade 2: 1
  TEAE Aspartate aminotransferase increased, grade 3: 1
  TEAE Asthenia, grade 1: 1
  TEAE Blood alkaline phosphatase increased, grade 2: 1
  TEAE Blood alkaline phosphatase increased, grade 3: 1
  TEAE Constipation, grade 1: 1
  TEAE Decreased appetite, grade 1: 1
  TEAE Diarrhoea, grade 1: 1
  TEAE Diarrhoea, grade 2: 1
  TEAE Fatigue, grade 2: 1
  TEAE Gamma-glutamyltransferase increased, grade 2: 1
  TEAE Gamma-glutamyltransferase increased, grade 3: 1
  TEAE Headache, grade 1: 1
  TEAE Hypoalbuminaemia, grade 2: 1
  TEAE Hypocalcemia, grade 2: 1
  TEAE Nausea, grade 1: 1
  TEAE Nausea, grade 3: 1
  TEAE Oropharyngeal pain, grade 1: 1
  TEAE Pyrexia, grade 1: 1
  TEAE Vomiting, grade 1: 1
  TEAE Vomiting, grade 2: 1
DL5 1,200 mg QOD oral
  TRAE Abdominal Pain, > G3 (patients): 0
  TRAE Abdominal Pain, All grades (patients): 0
  TRAE Blood Lactic Acid increased, > G3 (patients): 0
  TRAE Blood Lactic Acid increased, All grades (patients): 0
  TRAE Constipation, > G3 (patients): 0
  TRAE Constipation, All grades (patients): 0
  TRAE Decreased appetite, > G3 (patients): 0
  TRAE Decreased appetite, All grades (patients): 1
  TRAE Diarrhoea, > G3 (patients): 0
  TRAE Diarrhoea, All grades (patients): 2
  TRAE Fatigue, > G3 (patients): 0
  TRAE Fatigue, All grades (patients): 0
  TRAE Insomnia, > G3 (patients): 0
  TRAE Insomnia, All grades (patients): 0
  TRAE Nausea, > G3 (patients): 1
  TRAE Nausea, All grades (patients): 2
  TRAE Vomiting, > G3 (patients): 0
  TRAE Vomiting, All grades (patients): 2
[3]
  TEAE Adrenal insufficiency grade 1: 0
  TEAE Adrenal insufficiency grade 2: 1
  TEAE Adrenal insufficiency grade 3: 0
  TEAE Adrenal insufficiency grade 4: 0
  TEAE Anaemia grade 1: 0
  TEAE Anaemia grade 2: 0
  TEAE Anaemia grade 3: 1
  TEAE Anaemia grade 4: 0
  TEAE Appendicitis perforated grade 1: 0
  TEAE Appendicitis perforated grade 2: 0
  TEAE Appendicitis perforated grade 3: 0
  TEAE Appendicitis perforated grade 4: 0
  TEAE Back pain grade 1: 0
  TEAE Back pain grade 2: 0
  TEAE Back pain grade 3: 0
  TEAE Back pain grade 4: 0
  TEAE Cystitis grade 1: 0
  TEAE Cystitis grade 2: 0
  TEAE Cystitis grade 3: 0
  TEAE Cystitis grade 4: 0
